From patent US20260139245A1, “METHODS AND USES OF RIBONUCLEASE INHIBITORS” (Sequrna AB, priority 2022, published 2026)
Values joined by “and” are separate entries in the source; they are usually repeats but may differ in a detail not shown here. Equal entries are not always repeated.

Test system: RNase
Assay: Smart-seq2 (SS2) cDNA library generation and sequencing from 100 pg mouse RNA with the agent replacing recombinant RNase inhibitor in lysis buffer
Assay type: biochemical
Conditions: for sustained RNA stability during cDNA library generation: SS2 protocol for bulk RNA; for quality of the sequencing data compared with standard Smart-seq2 utilizing recombinant RNAse inhibitor (TaKaRa): agent used in its optimal range; for optimal range of alternative inhibitor (cDNA size distribution and yield similar to standard Smart-seq2): concentration in 1× Smart-seq2 lysis buffer, 100 pg mouse RNA
Protocol: We started by systematically testing ranges of PVSA concentrations in the scRNAseq protocol Smart-seq2 (SS2) (5), which provides full-length read coverage across transcripts, enabling evaluation of polymerase processivity. We prepared lysis buffer containing 0-600 μg/mL of PVSA (resulting in 0-270 μg/mL in the following first-strand reaction) and 100 pg spiked mouse RNA, performed SS2 library amplification, and evaluated resulting cDNA by capillary electrophoresis (Methods).
To examine the information yield and quality of PVSA-generated RNA-seq libraries, we sequenced SS2 libraries generated in presence of PVSA or RI (TaKaRa) and downsampled the resulting reads to allow even comparison (Methods). We analyzed library quality metrics in terms of genomic and transcriptomic mappability, base substitution rates, insertion and deletions (indels), likelihood of mismatches within the read, and average indel length.
Bulk RNA was extracted from cultured mouse tail tip fibroblasts using TRIzol (Invitrogen). For all bulk RNAseq experiments 100 pg of RNA was used as input, if is not otherwise specified, and was added to 96-well plates containing either Smart-seq2 or Smart-seq3 standard lysis buffer or lysis buffer with varying concentrations of polyvinyl sulfonic acid (Merck, cat no. 278424). Smart-seq2 lysis buffer composition was 0.1% Triton X-100, 2.5 mM dNTP/each, […] oligo-dT (5′-[…]30VN-3′), and 4 U recombinant inhibitor (TaKaRa) or PVSA of the concentration specified for each condition; total buffer volume 4.5 ul. Smart-seq3 lysis buffer composition was 0.1% Triton X-100, 10% PEG 8000, 1 mM dNTP/each, and 1 uM Smart-seq3 oligo-dT (5′-biotin-[…] T30VN-3′), and 1 U recombinant inhibitor (TaKaRa) or PVSA of the concentration specified for each condition; total buffer volume 2 ul. For single-cell experiments, cultured HEK293FT, spleen, or liver cells in 0.5% BSA in PBS were sorted into 96 well plates containing lysis buffer using an SH800S (Sony). Single cell sorted plates were briefly centrifuged and kept at −80° C. until they were further processed. Plates containing lysis buffer and input material were then processed according to the Smart seq2 and Smart-seq3 protocols (Picelli, S. et al., 2014 and Hagemann-Jensen, M. et al., 2020), except without addition of recombinant inhibitor in the first-strand reaction mix in reactions where PVSA was used. Smart-seq2 cDNA library generation: Cell were lysed at 72° C. for 3 min in a Bioer Life ECO thermocycler and placed on ice prior to first-strand synthesis. The following reverse transcriptase reaction contained 1× Superscript II buffer, 5 mM DTT, 1M betaine, 10 mM MgCl2, 1 uM Smart-seq2 TSO (5′-[…]rGrG+G-3′), 10 U Superscript II, and 10 U recombinant inhibitor (TaKaRa) for samples containing biological inhibitor; total reaction volume 10 ul. RT thermocycles were 42° C. for 90 min, followed by 10 cycles of 42° C. for 2 min and 50° C. for 2 min. The following cDNA amplification reaction contained 1× KAPA HiFi HotStart Ready Mix and 80 nM ISPCR primers (5′-[…]-3′); total reaction volume 25 ul. Thermocycles for Smart-seq2 cDNA amplification were 98° C. for 3 min, followed by either 18 (bulk), 20 (HEK), 21 (liver) or 22 (spleen) cycles of 98° C. for 20 sec, 67° C. for 15 sec, and 72° C. for 6 min, followed by a final incubation at 72° C. for 5 min. Smart-seq3 cDNA library generation: Cell were lysed at 72° C. for 10 min and placed on ice prior to first-strand synthesis.

Row | Compound | sustained RNA stability during cDNA library generation | optimal concentration of alternative inhibitor (Smart-seq2 lysis buffer, 100 pg mouse fibroblast RNA) [mg/mL] | quality of the sequencing data compared with standard Smart-seq2 utilizing recombinant RNAse inhibitor (TaKaRa) | optimal range of alternative inhibitor (cDNA size distribution and yield similar to standard Smart-seq2)
1 | O=S(=O)(O)CCN1CCOCC1 [MES, 2-(N-morpholino)ethanesulfonic acid] | did | 6 to 8 | on par | 4000 to 12000 µg/mL
2 | C=CP(=O)(O)O [VPA, vinylphosphonic acid, reference compound] | did not sustain RNA stability during cDNA library generation |  |  | 
3 | C=CS(=O)(=O)O [VSA, Vinylsulfonic acid] | did |  | on par | 500 to 2000 µg/mL
4 | Dextran sulfate | did |  | on par | 1 to 2.5 µg/mL and 1.5 to 2.5 µg/mL
5 | Fucoidan |  |  | on par | 5 to 20 µg/mL
6 | Heparin [reference compound] | did |  | on par | 2 to 10 µg/mL
7 | Sodium alginate | did |  | on par | 200 to 400 µg/mL and 100 to 400 µg/mL
